Source: patent publication US12324802B2, “Modulators of cystic fibrosis transmembrane conductance regulator” (Vertex Pharmaceuticals Incorporated, priority 2020, dated 2025)

What follows are compounds tested against T1, CFTR (F508del/MF-HBE cells) (Homo sapiens, UniProt P13569, DEL508-508) (assay: Ussing chamber assay of CFTR-mediated short-circuit currents (identification of potentiator compounds)). Settings: CFTR-mediated ISC in F508del/MF-HBE cells; incubated 18-24 hours at 37° C. with 10 μM (14S)-8-[3-(2-{dispiro[2.0.2.1]heptan-7-yl}ethoxy)-1H-pyrazol-1-yl]-...-2,2,4-trione, 20% human serum.
T1 construct: human bronchial epithelial (HBE) cells derived from CF subjects heterozygous for F508del and a minimal function CFTR mutation; endogenous in cells; host or cells: primary human bronchial epithelial cells from CF subjects (F508del/MF genotype)
T1 sequence (P13569 with tags, fused parts or gaps DEL508-508): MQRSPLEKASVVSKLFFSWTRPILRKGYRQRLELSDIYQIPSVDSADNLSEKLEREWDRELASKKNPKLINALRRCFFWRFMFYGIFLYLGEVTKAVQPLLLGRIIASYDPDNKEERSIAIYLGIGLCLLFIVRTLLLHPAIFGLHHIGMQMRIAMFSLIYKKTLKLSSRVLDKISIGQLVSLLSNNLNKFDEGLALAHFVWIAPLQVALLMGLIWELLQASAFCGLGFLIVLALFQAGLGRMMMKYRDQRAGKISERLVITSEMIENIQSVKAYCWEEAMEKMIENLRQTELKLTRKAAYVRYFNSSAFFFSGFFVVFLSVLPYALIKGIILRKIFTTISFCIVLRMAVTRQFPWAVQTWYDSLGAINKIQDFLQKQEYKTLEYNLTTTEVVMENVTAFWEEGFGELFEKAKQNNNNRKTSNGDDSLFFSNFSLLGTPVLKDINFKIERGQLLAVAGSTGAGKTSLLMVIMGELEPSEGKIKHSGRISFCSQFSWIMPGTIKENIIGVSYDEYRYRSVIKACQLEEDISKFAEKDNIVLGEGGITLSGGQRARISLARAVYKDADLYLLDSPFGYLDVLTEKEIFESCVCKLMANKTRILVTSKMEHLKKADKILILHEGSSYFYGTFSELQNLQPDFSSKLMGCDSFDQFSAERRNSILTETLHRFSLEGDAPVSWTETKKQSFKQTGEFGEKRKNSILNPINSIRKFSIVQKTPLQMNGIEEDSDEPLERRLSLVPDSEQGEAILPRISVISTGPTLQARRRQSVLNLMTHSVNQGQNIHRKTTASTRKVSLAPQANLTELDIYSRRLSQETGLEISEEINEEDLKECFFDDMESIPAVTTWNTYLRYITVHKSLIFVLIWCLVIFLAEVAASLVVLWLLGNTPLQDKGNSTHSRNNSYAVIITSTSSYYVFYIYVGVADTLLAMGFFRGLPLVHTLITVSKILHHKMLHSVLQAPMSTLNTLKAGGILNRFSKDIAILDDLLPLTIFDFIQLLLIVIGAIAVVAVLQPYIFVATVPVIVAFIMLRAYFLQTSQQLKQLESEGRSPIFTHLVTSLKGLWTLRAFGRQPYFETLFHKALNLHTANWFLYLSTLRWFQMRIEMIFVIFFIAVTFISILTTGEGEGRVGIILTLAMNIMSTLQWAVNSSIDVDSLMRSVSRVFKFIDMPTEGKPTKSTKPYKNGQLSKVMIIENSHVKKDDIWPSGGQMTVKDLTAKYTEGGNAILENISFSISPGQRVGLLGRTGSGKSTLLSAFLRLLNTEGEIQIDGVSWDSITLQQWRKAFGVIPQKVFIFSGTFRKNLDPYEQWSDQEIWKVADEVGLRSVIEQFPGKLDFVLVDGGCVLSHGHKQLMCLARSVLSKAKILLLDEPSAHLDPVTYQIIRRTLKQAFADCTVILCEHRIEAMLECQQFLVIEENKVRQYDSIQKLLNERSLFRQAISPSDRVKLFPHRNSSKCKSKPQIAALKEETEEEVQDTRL
Format: cell-based
Outline: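 Short-circuit current was voltage-clamped at 0 mV and 37 °C in pH 7.4 HEPES buffers, with amiloride (30 μM) on the apical side. The CFTR component was defined as forskolin (20 μM) peak minus residual current after BPO/GlyH-101/CFTRinh-172 at 20 μM each. Cells had been pretreated 18–24 h with potentiator concentrations and 10 μM corrector in 20% human serum, kept throughout the measurement.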

Row | Compound | EC50
1 | Nc1cc(C(F)(F)F)c2nc1-c1nnc(o1)C(O)(C(F)(F)F)CCCCCC(CO)N2 (single isomer, unassigned) [Compound 105, 17-amino-12-(hydroxymethyl)-6,15-bis(trifluoromethyl)-19-oxa-3,4,13,18-tetrazatricyclo[12.3.1.12,5]nonadeca-1(18),2,4,14,16-pentaen-6-ol] | > 1000 nM
2 | Nc1cc(C(F)(F)F)c2nc1-c1nnc(o1)C(O)(C(F)(F)F)CCCCCCC(=O)N2 (single isomer, unassigned) [Compound 106, 18-Amino-6-hydroxy-6,16-bis(trifluoromethyl)-20-oxa-3,4,14,19-tetrazatricyclo[13.3.1.12,5]icosa-1(19),2,4,15,17-pentaen-13-one] | < 500 nM
3 | Nc1cc(C(F)(F)F)c2nc1-c1nnc(o1)C(O)(C(F)(F)F)CCCCCCC(=O)N2 (single isomer, unassigned) [Compound 107, 18-amino-6-hydroxy-6,16-bis(trifluoromethyl)-20-oxa-3,4,14,19-tetrazatricyclo[13.3.1.12,5]icosa-1(19),2,4,15,17-pentaen-13-one] | > 1000 nM
4 | Nc1cc(C(F)(F)F)c2nc1-c1nnc(o1)C(O)(C(F)(F)F)CCCCCC(=O)N2 (single isomer, unassigned) [Compound 108, 17-amino-6-hydroxy-6,15-bis(trifluoromethyl)-19-oxa-3,4,13,18-tetrazatricyclo[12.3.1.12,5]nonadeca-1(18),2,4,14,16-pentaen-12-one] | < 500 nM
5 | Nc1cc(C(F)(F)F)c2nc1-c1nnc(o1)C(O)(C(F)(F)F)CCCCCC(=O)N2 (single isomer, unassigned) [Compound 109, 17-amino-6-hydroxy-6,15-bis(trifluoromethyl)-19-oxa-3,4,13,18-tetrazatricyclo[12.3.1.12,5]nonadeca-1(18),2,4,14,16-pentaen-12-one] | > 1000 nM
6 | Nc1cc(C(F)(F)F)c2nc1-c1nnc(o1)C(O)(C(F)(F)F)CCCCCC1CCS(=O)(=O)N21 (single isomer, unassigned) [Compound 110, 20-amino-6-hydroxy-6,18-bis(trifluoromethyl)-22-oxa-15λ6-thia-3,4,16,21-tetraazatetracyclo[15.3.1.12,5.012,16]docosa-1(21),2,4,17,19-pentaene-15,15-dione] | < 500 nM
7 | Nc1cc(C(F)(F)F)c2nc1-c1nnc(o1)C(O)(C(F)(F)F)CCCCCC1CCS(=O)(=O)N21 (single isomer, unassigned) [Compound 111, 20-amino-6-hydroxy-6,18-bis(trifluoromethyl)-22-oxa-15λ6-thia-3,4,16,21-tetraazatetracyclo[15.3.1.12,5.012,16]docosa-1(21),2,4,17,19-pentaene-15,15-dione] | > 1000 nM
8 | Nc1cc(C(F)(F)F)c2nc1-c1nnc(o1)C(O)(C(F)(F)F)CCCCCC1CCS(=O)(=O)N21 (single isomer, unassigned) [Compound 113, 20-amino-6-hydroxy-6,18-bis(trifluoromethyl)-22-oxa-15λ6-thia-3,4,16,21-tetraazatetracyclo[15.3.1.12,5.012,16]docosa-1(21),2,4,17,19-pentaene-15,15-dione] | > 1000 nM
9 | COc1cc(N)c2nc1N1CCC[C@H]1CCCCCC(O)(C(F)(F)F)C1=NN=C2O1 (single isomer, unassigned) [Compound 114] | < 500 nM
10 | COc1cc(N)c2nc1N1CCC[C@H]1CCCCCC(O)(C(F)(F)F)C1=NN=C2O1 (single isomer, unassigned) [Compound 115] | > 1000 nM
11 | Nc1cc(C(F)(F)F)c2nc1-c1nnc(o1)C(O)(C(F)(F)F)c1ccc(F)c(c1)CCC[C@@H]1CCCN21 (single isomer, unassigned) [Compound 131] | < 500 nM
12 | Nc1cc(S(=O)(=O)c2ccccc2)c2nc1-c1nnc(o1)C(O)(C(F)(F)F)CCCCC[C@@H]1CCCN21 (single isomer, unassigned) [Compound 140] | > 1000 nM
13 | Nc1cc(S(=O)(=O)c2ccccc2)c2nc1-c1nnc(o1)C(O)(C(F)(F)F)CCCCC[C@@H]1CCCN21 (single isomer, unassigned) [Compound 141] | < 500 nM

The remaining lines, values ahead:

Row | EC50 | Compound
14 | < 500 nM | Nc1cc(C(F)(F)F)c2nc1-c1nnc(o1)C(O)(C(F)(F)F)CCCCCC(CO)N2 (single isomer, unassigned) [Compound 104, 17-amino-12-(hydroxymethyl)-6,15-bis(trifluoromethyl)-19-oxa-3,4,13,18-tetrazatricyclo[12.3.1.12,5]nonadeca-1(18),2,4,14,16-pentaen-6-ol]
15 | 500 to 1000 nM | Nc1cc(C(F)(F)F)c2nc1-c1nnc(o1)C(O)(C(F)(F)F)CCCCCC1CCS(=O)(=O)N21 (single isomer, unassigned) [Compound 112, 20-amino-6-hydroxy-6,18-bis(trifluoromethyl)-22-oxa-15λ6-thia-3,4,16,21-tetraazatetracyclo[15.3.1.12,5.012,16]docosa-1(21),2,4,17,19-pentaene-15,15-dione]
16 | < 500 nM | Nc1cc(C(F)(F)F)c2nc1-c1nnc(o1)C(O)(C(F)(F)F)CCCCC[C@@H]1COCC(=O)N21 (single isomer, unassigned) [Compound 116]
17 | > 1000 nM | Nc1cc(C(F)(F)F)c2nc1-c1nnc(o1)C(O)(C(F)(F)F)CCCCC[C@@H]1COCC(=O)N21 (single isomer, unassigned) [Compound 117]
18 | < 500 nM | Nc1cc(C(F)(F)F)c2nc1-c1nnc(o1)C(O)(C(F)(F)F)CCCCCC(c1ccccc1)N2 (single isomer, unassigned) [Compound 119, 17-amino-12-phenyl-6,15-bis(trifluoromethyl)-19-oxa-3,4,13,18-tetrazatricyclo[12.3.1.12,5]nonadeca-1(18),2,4,14,16-pentaen-6-ol]
19 | < 500 nM | Nc1cc(C(F)(F)F)c2nc1-c1nnc(o1)C(O)(C(F)(F)F)CCCCCC(c1ccccc1)N2 (single isomer, unassigned) [Compound 120, 17-amino-12-phenyl-6,15-bis(trifluoromethyl)-19-oxa-3,4,13,18-tetrazatricyclo[12.3.1.12,5]nonadeca-1(18),2,4,14,16-pentaen-6-ol]
20 | > 1000 nM | Nc1cc(C(F)(F)F)c2nc1-c1nnc(o1)C(O)(C(F)(F)F)CCCCCC(c1ccccc1)N2 (single isomer, unassigned) [Compound 122, 17-amino-12-phenyl-6,15-bis(trifluoromethyl)-19-oxa-3,4,13,18-tetrazatricyclo[12.3.1.12,5]nonadeca-1(18),2,4,14,16-pentaen-6-ol]
21 | > 1000 nM | Nc1cc(C(F)(F)F)c2nc1-c1nnc(o1)C(O)(C(F)(F)F)c1ccc(F)c(c1)CCC[C@@H]1CCCN21 (single isomer, unassigned) [Compound 130]
22 | < 500 nM | CN(C)C(=O)C1CCCCCC(O)(C(F)(F)F)C2=NN=C(O2)c2nc(c(C(F)(F)F)cc2N)N1 (single isomer, unassigned) [Compound 148, 17-amino-6-hydroxy-N,N-dimethyl-6,15-bis(trifluoromethyl)-19-oxa-3,4,13,18-tetrazatricyclo[12.3.1.12,5]nonadeca-1(18),2,4,14,16-pentaene-12-carboxamide]
23 | > 1000 nM | CN(C)C(=O)C1CCCCCC(O)(C(F)(F)F)C2=NN=C(O2)c2nc(c(C(F)(F)F)cc2N)N1 (single isomer, unassigned) [Compound 149, 17-amino-6-hydroxy-N,N-dimethyl-6,15-bis(trifluoromethyl)-19-oxa-3,4,13,18-tetrazatricyclo[12.3.1.12,5]nonadeca-1(18),2,4,14,16-pentaene-12-carboxamide]
